# Measured values published in PMC3387161, “Small Molecules Targeted to a Non-Catalytic “RVxF” Binding Site of Protein Phosphatase-1 Inhibit HIV-1” (PLoS ONE, 2012).
# “And” between values parts separate entries of the source, which are not always exact repeats. Equal entries are not always repeated.
# Legend:
# [1] = test system: CMV promoter; assay: Control CMV promoter transcription (CMV-EGFP) in 293T cells; details: 10 µM
# [2] = molecular target: T1, recombinant PP1α (Oryctolagus cuniculus, UniProt P62139); assay: Malachite green dephosphorylation of RVxF-containing hybrid pRb peptides by PP1α; type: biochemical
# T1 construct: purchased New England Biolabs, Ipswich, MA
# From the text: Here, we analyzed the effect of 1H4 on the binding of the Tat RVxF sequence to PP1 using hybrid PP1 substrates containing a substrate phosphopeptide linked to RVxF-containing sequences derived from Tat or NIPP1. As the substrate phosphopeptide, we used a retinoblastoma protein-derived HIPR(pS)[…] peptide (pRb) that is efficiently dephosphorylated by PP1 but not by the enzymatically-related PP2A [13]. The pRb peptide was linked to an extended RVxF-containing sequence derived from Tat ([…]) (pRb-Tat peptide) or the central domain of NIPP1 ([…]). To visualize the interaction between pRb-Tat and PP1 we built a computational model of the pRb-Tat peptide with PP1 complex (described in Materials and Methods). Based on this model, the pRb-Tat peptide is able to bind to the RVxF- accommodating groove of PP1 and, at the same time, to reach the active site of PP1 without any tension (Fig. 5A, green spheres; Fig. 5B, gray sticks). The pRb-Tat peptide was efficiently dephosphorylated by PP1 in vitro (Fig. 5C, V0 = 0.31 µM·min^-1). […] Addition of 1H4 at 3-fold molar excess (480 µM) over pRb-Tat (160 µM) inhibited pRb-Tat dephosphorylation and reduced the rate of dephosphorylation (Fig. 5C, V0 = 0.19 µM·min^−1) to the rate of pRb-Tat QACA dephosphorylation (Fig. 5C, V0 = 0.17 µM⋅min^−1). […] To further investigate the effect of 1H4 on the dephosphorylation of the pRb-Tat peptide, we analyzed the initial velocity versus pRb-Tat peptide substrate concentration plots. […] This was expected because the dephosphorylation site and the RVxF-containing sequence were fused into one hybrid substrate and 1H4 interferes with the binding of this substrate to PP1.
# Figure 5 1H4 compound competes with RVxF motif. A. Superimposition of pRb-Tat peptide on the complex of PP1 with Spinophilin. PP1 surface is colored after the atom types. The spinophilin peptide is shown as magenta ribbon and the pRb-Tat peptide as orange ribbon. The Val25 and Phe27 residues of pRb-Tat and the Ile449 and Phe 451 residues of Spinophilin are shown as sticks. The 2-(N-morpholino)-ethanesulfonic acid bound in the active site of PP1 is shown in green spheres. The phosphorylated Ser6 residue of pRb-Tat peptide is shown as sticks. B. Phosphorylated Ser 6 residue binds to the active site of PP1. Comparative superimposition of pRb-Tat peptide over the crystal structure of MES bound in the active site of PP1. Catalytic resides are shown as sticks. MES is shown as green sticks, and the phosphorylated Ser6 residue of pRb-Tat peptide is shown as orange sticks. The pRb-Tat peptide is shown as orange ribbon. C. 1H4 inhibits kinetics of pRb-Tat peptide dephosphorylation by PP1α. Recombinant PP1α was assayed with pRb-Tat (WT or QACA mutant, 120 µM) in the absence or presence of 1H4 as indicated. The reactions were stopped at indicated time points and the phosphate release was quantified by malachite green assay. Initial velocity was calculated by linear regression in Prism. D. 1H4 inhibits kinetics of pRb-cdNIPP dephosphorylation by PP1α. Recombinant PP1α was assayed with pRb-cdNIPP1 in the absence or presence of 1H4 as indicated. Mutant pRb cdNIPP1 pA-RATA was used as negative control. The reactions were stopped at indicated time points and the phosphate release was quantified by malachite green assay. Initial velocity was calculated by linear regression in Prism. […] Initial rates of pRb-Tat peptide dephosphorylation by PP1α were assayed at the indicated concentrations of the substrate in the absence or presence of 300 µM 1H4 or non-HIV-1 inhibitory 1G3. The amount of the released phosphate was quantified with malachite green.
# Malachite green dephosphorylation assays were carried out with the Ser/Thr phosphatase assay kit (Upstate, Lake Placid, NY) using recombinant PP1α (New England Biolabs, Ipswich, MA). […]
# [3] = Trypan blue exclusion viability assay in CEM cells; type: cell-based; details: human, read-out: Cytotoxicity IC50 in CEM cells by trypan blue exclusion
# [4] = test system: interaction of Tat with PP1α; type: cell-based, human
# [5] = test system: HIV-1 transcription in CEM-GFP cells; assay: cells; type: cell-based
# [6] = test system: CEM cells; assay: Toxicity by propidium iodide fluorescence in CEM-GFP cells; type: cell-based; details: Homo sapiens, CCRF-CEM, 3 µM to 45 µM, 24 h
# T1 sequence (P62139 whole entry): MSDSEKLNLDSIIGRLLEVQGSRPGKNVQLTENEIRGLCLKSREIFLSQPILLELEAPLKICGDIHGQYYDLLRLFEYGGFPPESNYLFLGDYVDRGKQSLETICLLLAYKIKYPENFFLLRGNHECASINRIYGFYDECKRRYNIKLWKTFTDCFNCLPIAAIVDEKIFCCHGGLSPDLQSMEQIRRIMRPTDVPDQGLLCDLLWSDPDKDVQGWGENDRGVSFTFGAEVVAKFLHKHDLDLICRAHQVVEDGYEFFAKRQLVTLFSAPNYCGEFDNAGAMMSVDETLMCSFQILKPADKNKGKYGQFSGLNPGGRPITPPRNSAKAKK
smiles,measurement,setting,value
COCCNC(=O)COC(=O)c1c2c(nc3ccccc13)/C(=C/c1ccc(O)cc1)CCC2 [1H4],Effect on transcription from control CMV promoter,[1],did not inhibit transcription from a control CMV promoter
same,Effect on and mode of inhibition of pRb-Tat dephosphorylation by PP1α,"[2]; 300 µM compound, Lineweaver-Burk plot",competitive
same,pRB-Tat VMAX,"[2]; 300 µM compound, control 16.67, 25% of substrate assumed phosphorylated",18.20
same,V0 of pRb-cdNIPP1 dephosphorylation by PP1α in presence of compound,[2]; 1H4 added,0.37 µM·min^-1 and 0.37 ± 0.01 µM·min^-1
same,V0 of pRb-Tat dephosphorylation by PP1α in presence of compound,[2]; 1H4 at 3-fold molar excess (480 µM) over pRb-Tat (160 µM),0.19 µM·min^-1 and 0.19 ± 0.01 µM·min^-1
same,IC50 at 24 h,[3],> 100 µM
same,Association of Tat with CDK9/cyclin T1,[4],no effect on the association of Tat with CDK9/cyclin T1
same,PP1α co-precipitation with Flag-Tat,[4],reduced the amount of PP1α-EGFP that co-precipitated with Tat
same,Percent of inhibition of HIV-1 transcription in CEM GFP cells infected with Ad-Tat,"[5]; 25 µM of each compound, 48 hours",96%
same,IC50,"[5]; Human immunodeficiency virus 1, CEM-GFP, 24 h, read-out: Inhibition of HIV-1 Transcription in CEM-GFP cells (IC50, μM)",10 µM
same,IC50,[6],> 25 µM
